Data reported in ChEMBL document CHEMBL1201862, “PubChem BioAssay data set” (2004).
Activity calls are given as the source filed them.

Assays:
[1] = Fluorescence-based cell-based high throughput dose response assay for inhibitors of the interaction of nucleotide-binding oligomerization domain containing 2 (NOD2) and the receptor-interacting serine-threonine kinase 2 (RIPK2).; assay type: functional; conditions: Homo sapiens
[2] = ARNT/TACC3 interaction disruptors, potency, confirmation, biochemical, AlphaScreen, cherry-picked samples (AID 651703); assay type: functional, Homo sapiens;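 note: His-tagged ARNT PAS-B domain paired with GST-TACC3 E629A dimer coactivator fragment; potency of inhibitors that break up the complex and lower AlphaScreen signal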
[3] = target: Metabotropic glutamate receptor 5 (Rattus norvegicus, UniProt P31424); test: Identification of a glycine sulfonamide based non-MPEP site positive allosteric potentiator (PAM) of mGlu5 (calcium_assay).; assay type: functional
[4] = HEK293T cell cytotoxicity, dose response, cytotoxicity control, luminescence plate reader, powder samples, set 4 (AID 651863); assay type: functional, cell-based; conditions: HEK293
[5] = target: Metabotropic glutamate receptor 3 (Rattus norvegicus, UniProt P31422); test: mGlu3 negative allosteric modulator potency, dose response, HEK/GIRK cells, thallium flux, rat (AID 651839); assay type: functional
[6] = target: 1-phosphatidylinositol 4,5-bisphosphate phosphodiesterase beta-3 (Homo sapiens, UniProt Q01970); test: Fluorescence-based biochemical high throughput dose response assay to identify inhibitors of phospholipase C isozymes (PLC-B3).
[7] = target: 1-phosphatidylinositol 4,5-bisphosphate phosphodiesterase gamma-1 (Homo sapiens, UniProt P19174); test: Counterscreen for inhibitors of phospholipase C isozymes (PLC-B3): Fluorescence-based biochemical high throughput dose response assay to identify inhibitors of phospholipase C isozymes (PLC-gamma1).
[8] = Luminescence Cell-Based Dose Response HTS to Identify Activators of Luciferase Translation or Activity in H4 […] Cells. [Related pubchem assays: 1829 (Project Summary), 1814 (Primary HTS)]; assay type: functional
[9] = target: T1, Trace amine-associated receptor 1 (Homo sapiens, UniProt Q96RJ0); test: Counterscreen for antagonists of the human trace amine associated receptor 1 (hTAAR1): Fluorescence-based cell-based high throughput dose response assay to identify TAAR1 Agonists.; assay type: functional
T1 sequence (Q96RJ0 whole entry): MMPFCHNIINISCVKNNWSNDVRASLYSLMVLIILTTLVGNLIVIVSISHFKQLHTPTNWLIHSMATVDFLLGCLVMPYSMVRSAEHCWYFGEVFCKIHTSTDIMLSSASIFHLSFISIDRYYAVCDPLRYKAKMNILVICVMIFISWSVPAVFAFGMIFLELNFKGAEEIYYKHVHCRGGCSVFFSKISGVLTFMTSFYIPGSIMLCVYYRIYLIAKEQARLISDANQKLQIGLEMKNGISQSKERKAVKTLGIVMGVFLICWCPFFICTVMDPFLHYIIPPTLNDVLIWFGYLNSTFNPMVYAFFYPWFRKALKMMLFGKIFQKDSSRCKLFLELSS

[10] = target: T2, Aryl hydrocarbon receptor (Homo sapiens, UniProt P35869); test: Luminescence-based cell-based high throughput dose response assay for activators of the Aryl Hydrocarbon Receptor (AHR). [Related pubchem assays: 2796 (Primary screen (AHR activators in singlicate)), 2845 (Confirmation screen (AHR activators in triplicate)), 434939 (Counterscreen (PXR activators in triplicate)), 2804 (Summary (AHR activators))]; assay type: ADME
T2 sequence (P35869 whole entry): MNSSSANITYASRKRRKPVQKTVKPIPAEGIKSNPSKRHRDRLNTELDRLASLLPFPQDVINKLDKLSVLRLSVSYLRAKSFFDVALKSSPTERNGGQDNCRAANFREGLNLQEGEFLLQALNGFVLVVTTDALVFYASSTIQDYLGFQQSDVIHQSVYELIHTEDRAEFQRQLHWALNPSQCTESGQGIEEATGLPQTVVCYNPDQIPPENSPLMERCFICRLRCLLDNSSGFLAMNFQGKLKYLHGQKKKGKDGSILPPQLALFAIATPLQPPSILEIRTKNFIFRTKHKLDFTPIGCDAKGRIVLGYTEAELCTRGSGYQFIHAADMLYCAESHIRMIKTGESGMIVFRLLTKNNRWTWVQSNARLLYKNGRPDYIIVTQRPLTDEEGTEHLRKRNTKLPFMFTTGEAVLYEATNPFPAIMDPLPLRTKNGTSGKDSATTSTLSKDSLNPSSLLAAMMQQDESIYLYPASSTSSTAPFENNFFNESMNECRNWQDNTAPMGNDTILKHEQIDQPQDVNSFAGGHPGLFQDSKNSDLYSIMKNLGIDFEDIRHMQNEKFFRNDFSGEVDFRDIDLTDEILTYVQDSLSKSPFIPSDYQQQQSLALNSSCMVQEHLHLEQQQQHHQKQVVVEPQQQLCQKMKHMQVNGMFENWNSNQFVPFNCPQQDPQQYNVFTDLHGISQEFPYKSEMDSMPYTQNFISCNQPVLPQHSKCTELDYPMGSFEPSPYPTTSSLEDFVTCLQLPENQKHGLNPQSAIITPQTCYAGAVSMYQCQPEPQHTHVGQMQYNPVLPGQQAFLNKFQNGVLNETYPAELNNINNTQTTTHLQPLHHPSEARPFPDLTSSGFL

[11] = Counterscreen for […] of the human trace amine associated receptor 1 (TAAR1): Fluorescence-based cell-based high throughput dose response assay to identify nonselective Ga16 agonists.; assay type: functional
H4 = test: Luminescence Cell-Based Dose Response HTS to Identify Activators of 5'UTR Stem-Loop Driven Prion Protein mRNA Translation in H4 Neuroglioblastoma Cells. [Related pubchem assays: 1829 (Project Summary), 1814 (Primary HTS)]; assay type: functional; conditions: Homo sapiens
[12] = Counterscreen for antagonists of the human trace amine associated receptor 1 (hTAAR1): Fluorescence-based cell-based high throughput dose response assay to identify nonselective Ga16 antagonists.; assay type: functional
[13] = target: T1, Trace amine-associated receptor 1; test: Fluorescence-based cell-based high throughput dose response assay to identify antagonists of the human trace amine associated receptor 1 (TAAR1).; assay type: functional
[14] = target: Endoplasmic reticulum aminopeptidase 1 (Homo sapiens, UniProt Q9NZ08); test: ERAP1 aminopeptidase inhibitors, dose response, biochemical, cherry-pick, set 2, plate reader (AID 743314)
[15] = Luminescence Cell-Based Dose Retest to Confirm Inhibitors of Cancer Stem Cells. [Related pubchem assays (depositor defined):AID2717, AID2721]; assay type: functional; conditions: Homo sapiens
[16] = HEK293T cell cytotoxicity, dose response, cytotoxicity control for HIV Vif inhibitor project, cherry-picks (AID 652208); assay type: functional, cell-based

Sequence of Metabotropic glutamate receptor 3 (P31422 whole entry): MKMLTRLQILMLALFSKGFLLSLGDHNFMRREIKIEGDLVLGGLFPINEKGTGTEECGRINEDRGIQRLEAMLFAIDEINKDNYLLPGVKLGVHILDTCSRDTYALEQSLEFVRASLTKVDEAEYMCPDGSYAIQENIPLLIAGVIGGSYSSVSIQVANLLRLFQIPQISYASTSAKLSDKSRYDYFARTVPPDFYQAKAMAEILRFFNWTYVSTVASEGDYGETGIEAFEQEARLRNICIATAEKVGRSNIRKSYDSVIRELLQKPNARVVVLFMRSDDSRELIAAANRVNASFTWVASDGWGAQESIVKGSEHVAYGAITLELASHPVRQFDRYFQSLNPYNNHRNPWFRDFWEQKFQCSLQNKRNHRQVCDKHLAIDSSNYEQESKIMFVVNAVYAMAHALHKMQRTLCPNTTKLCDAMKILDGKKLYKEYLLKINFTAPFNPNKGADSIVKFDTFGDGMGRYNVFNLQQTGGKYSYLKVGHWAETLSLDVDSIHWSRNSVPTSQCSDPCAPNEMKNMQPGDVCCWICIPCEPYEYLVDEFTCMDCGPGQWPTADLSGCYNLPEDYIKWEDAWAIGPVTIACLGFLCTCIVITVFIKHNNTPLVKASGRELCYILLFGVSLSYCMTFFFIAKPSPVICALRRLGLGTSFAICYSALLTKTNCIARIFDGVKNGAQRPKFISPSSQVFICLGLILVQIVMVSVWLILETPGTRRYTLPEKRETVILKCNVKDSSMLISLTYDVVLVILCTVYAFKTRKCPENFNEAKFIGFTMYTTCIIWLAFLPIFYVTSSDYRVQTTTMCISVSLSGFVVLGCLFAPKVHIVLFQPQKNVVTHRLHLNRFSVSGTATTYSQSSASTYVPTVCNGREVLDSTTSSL
Sequence of 1-phosphatidylinositol 4,5-bisphosphate phosphodiesterase gamma-1 (P19174 whole entry): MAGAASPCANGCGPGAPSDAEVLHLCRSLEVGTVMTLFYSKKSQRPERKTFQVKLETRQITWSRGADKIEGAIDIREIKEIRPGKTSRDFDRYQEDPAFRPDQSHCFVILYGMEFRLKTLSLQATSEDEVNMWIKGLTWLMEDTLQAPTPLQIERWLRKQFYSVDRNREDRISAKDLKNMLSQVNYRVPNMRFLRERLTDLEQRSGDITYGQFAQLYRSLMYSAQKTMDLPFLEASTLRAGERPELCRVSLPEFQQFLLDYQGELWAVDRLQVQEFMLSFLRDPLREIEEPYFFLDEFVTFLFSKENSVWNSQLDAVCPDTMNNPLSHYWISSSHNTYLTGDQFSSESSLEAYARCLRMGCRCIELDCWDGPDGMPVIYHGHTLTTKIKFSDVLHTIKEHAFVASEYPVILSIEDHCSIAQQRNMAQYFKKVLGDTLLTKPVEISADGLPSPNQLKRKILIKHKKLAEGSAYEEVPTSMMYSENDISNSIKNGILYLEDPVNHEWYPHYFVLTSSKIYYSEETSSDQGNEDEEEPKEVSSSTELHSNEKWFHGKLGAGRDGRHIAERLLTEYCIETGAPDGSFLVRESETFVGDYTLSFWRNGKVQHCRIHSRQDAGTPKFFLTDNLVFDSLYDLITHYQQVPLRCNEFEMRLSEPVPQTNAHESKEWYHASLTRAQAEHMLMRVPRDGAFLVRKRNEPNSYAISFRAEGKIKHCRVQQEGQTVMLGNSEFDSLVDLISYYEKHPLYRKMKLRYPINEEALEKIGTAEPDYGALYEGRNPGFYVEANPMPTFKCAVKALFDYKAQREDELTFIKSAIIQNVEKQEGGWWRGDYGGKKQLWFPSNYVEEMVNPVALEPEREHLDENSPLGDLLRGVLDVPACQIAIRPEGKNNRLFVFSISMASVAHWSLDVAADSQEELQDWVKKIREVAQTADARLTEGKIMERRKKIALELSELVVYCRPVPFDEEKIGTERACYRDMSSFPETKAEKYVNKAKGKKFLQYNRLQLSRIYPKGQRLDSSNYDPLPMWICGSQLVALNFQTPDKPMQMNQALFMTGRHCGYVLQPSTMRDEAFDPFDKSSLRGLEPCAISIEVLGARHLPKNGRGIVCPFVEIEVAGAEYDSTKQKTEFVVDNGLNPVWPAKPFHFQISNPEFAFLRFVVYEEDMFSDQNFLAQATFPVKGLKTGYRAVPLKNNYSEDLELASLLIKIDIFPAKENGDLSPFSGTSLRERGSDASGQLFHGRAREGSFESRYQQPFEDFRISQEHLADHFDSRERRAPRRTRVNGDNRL
Sequence of Metabotropic glutamate receptor 5 (P31424 whole entry): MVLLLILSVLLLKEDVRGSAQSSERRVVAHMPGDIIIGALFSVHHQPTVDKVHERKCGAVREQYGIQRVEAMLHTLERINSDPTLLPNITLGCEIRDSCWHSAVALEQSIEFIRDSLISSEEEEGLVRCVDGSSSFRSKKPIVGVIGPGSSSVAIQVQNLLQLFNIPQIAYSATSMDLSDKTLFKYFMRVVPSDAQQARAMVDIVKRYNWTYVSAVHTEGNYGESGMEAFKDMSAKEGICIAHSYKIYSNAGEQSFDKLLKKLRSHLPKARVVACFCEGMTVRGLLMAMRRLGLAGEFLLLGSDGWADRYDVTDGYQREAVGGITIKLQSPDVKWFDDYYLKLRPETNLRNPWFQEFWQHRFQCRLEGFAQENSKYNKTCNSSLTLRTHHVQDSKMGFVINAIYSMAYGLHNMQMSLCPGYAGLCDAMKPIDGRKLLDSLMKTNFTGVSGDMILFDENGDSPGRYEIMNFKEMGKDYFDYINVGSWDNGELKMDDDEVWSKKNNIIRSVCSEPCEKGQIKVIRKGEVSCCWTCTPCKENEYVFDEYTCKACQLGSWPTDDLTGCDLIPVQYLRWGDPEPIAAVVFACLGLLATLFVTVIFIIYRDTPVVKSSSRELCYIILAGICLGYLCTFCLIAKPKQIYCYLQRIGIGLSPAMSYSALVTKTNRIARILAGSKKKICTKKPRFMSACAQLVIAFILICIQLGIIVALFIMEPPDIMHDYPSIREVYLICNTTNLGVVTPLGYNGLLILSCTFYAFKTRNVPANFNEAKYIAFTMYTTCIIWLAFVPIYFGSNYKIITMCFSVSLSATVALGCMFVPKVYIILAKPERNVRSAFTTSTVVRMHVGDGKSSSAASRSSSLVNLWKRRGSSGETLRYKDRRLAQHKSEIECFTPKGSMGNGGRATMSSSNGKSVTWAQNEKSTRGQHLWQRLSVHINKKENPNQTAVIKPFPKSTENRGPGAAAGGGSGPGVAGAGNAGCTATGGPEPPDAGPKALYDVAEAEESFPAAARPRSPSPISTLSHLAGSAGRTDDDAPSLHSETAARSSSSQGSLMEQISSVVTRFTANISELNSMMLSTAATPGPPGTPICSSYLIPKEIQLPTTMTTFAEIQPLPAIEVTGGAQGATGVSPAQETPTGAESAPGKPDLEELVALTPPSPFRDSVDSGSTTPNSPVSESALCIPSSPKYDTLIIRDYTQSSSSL
Sequence of Endoplasmic reticulum aminopeptidase 1 (Q9NZ08 whole entry): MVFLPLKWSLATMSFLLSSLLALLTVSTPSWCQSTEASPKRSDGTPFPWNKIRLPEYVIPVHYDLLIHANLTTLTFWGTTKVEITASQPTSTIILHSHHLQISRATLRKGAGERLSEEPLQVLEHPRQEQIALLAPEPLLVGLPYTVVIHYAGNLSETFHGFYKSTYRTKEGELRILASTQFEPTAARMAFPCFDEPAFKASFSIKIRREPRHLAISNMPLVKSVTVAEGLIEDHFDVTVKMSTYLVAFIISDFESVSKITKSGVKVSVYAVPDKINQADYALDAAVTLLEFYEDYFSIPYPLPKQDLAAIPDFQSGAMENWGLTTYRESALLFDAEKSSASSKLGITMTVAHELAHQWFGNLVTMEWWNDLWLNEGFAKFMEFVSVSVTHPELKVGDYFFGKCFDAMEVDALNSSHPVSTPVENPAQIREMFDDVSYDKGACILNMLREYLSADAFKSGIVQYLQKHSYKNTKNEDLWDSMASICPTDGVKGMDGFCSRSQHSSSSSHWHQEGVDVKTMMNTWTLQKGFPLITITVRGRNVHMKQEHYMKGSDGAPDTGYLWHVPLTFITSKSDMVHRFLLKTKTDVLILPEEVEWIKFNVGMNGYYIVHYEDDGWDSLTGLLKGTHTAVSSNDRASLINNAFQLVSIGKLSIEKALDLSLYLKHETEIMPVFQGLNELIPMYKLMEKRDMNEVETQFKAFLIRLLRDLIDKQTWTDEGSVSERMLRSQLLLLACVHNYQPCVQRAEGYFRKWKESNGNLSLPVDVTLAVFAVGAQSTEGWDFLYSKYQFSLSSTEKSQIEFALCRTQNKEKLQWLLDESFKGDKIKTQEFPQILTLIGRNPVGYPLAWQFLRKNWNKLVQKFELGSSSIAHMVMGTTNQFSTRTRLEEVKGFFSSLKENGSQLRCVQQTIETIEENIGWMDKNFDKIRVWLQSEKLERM

With C=CCOc1ccccc1C(=O)/C=C1/C(=O)Nc2ccccc21 the IC50 [1] was 3.58 µM (active).
For COC(=O)C(CC#Cc1ccc2c(c1)[C@]1(C(=O)N2)[C@H](c2ccc(O)cc2)N2[C@H](c3ccccc3)[C@H](c3ccccc3)OC(=O)[C@H]2[C@@H]1C(=O)N1CCCCCCC1)C(=O)OC, the AC50 [2] was 104 µM (active).
Compound CCS(=O)(=O)N1c2ccccc2CC[C@H]1C(=O)Nc1cccc(Cl)c1 has an EC50 [3] of 1.74 µM.
In the case of O=C(O)C1CCCCC1C(=O)N1CCc2ccccc2[C@H]1C(=O)NC12CC3CC(CC(C3)C1)C2 (some centres not stated), the AC50 [4] is reported as > 52 µM (inactive).
COc1ccc(C#Cc2ccc(C(=O)N3CCC[C@@H](O)C3)cc2)c(F)c1 showed an IC50 [5] of 4.29 µM.
With CN(C(=O)c1ccccc1)C1c2c(ccc3ccccc23)OCC1CO (configuration not stated) the IC50 [6] was > 122 µM (inactive) and the IC50 [7] was > 122 µM (inactive).
With O=C(Nc1ccccc1OC(=O)c1ccc(Cl)cc1)c1ccc(Cl)cc1 the EC50 [8] was > 120 µM (not active), the EC50 [9] was 15.7 µM (inactive) and the EC50 [10] was 4.89 µM (active). For the same compound, the EC50 [11] was > 29.9 µM (inactive), the EC50 (H4) was 13.7 µM (active) and the IC50 [12] was > 9.97 µM (active). The IC50 [13] was 7.96 µM (active).
For COc1ccc2c3c([nH]c2c1)[C@@H](CO)N(Cc1ccccc1OC)CC31CN(C)C1, the AC50 [14] was 15.8 µM (active).
In the case of Cc1cc(C)cc(NC(=O)CCc2nc(O)c3c4c(sc3n2)CCCC4)c1, the AC50 [15] is reported as 0.91 µM (active) and the AC50 [16] is reported as 37.5 µM (active).
